# Test results reported in patent US20230085307A1, “PYRIDAZINONE COMPOUND AND HERBICIDE” (NISSAN CHEMICAL CORPORATION, priority 2019, published 2023).
# What was measured:
# blackgrass [1] = experiment: Test Example 5: herbicidal effect by foliage application, plastic box (Table 20, symbol J); assay type: in vivo, blackgrass (Alopecurus myosuroides); settings: foliage application
# Summary of the method: (§1)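 Post-emergence foliar test in sterilized diluvial soil. Compound applied as water-diluted emulsion at a predetermined rate to 14-day-old plants; evaluation at three weeks.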
# lambsquarters [2] = experiment: Test Example 5: herbicidal effect by foliage application, plastic box (Table 20, symbol O); assay type: in vivo, lambsquarters (Chenopodium album); settings: foliage application
# Summary of the method: as §1
# wild oat [3] = experiment: Test Example 5: herbicidal effect by foliage application, plastic box (Table 20, symbol I); assay type: in vivo, wild oat (Avena fatua); settings: foliage application
# Summary of the method: as §1
# wild oat [4] = experiment: Test Example 4: herbicidal effect by soil treatment (Table 19, symbol I); assay type: in vivo, wild oat (Avena fatua)
# Summary of the method: (§2)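 Emulsion of test compound, water-diluted to predetermined amount, sprayed on soil after sowing (seed depth ~1.5 cm, sterilized diluvial soil). Greenhouse, 25–30° C. Effect graded at three weeks post-spray.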
# barnyard grass [5] = experiment: Test Example 3: herbicidal effect by foliage application, Wagner pot (Table 18, symbol H); assay type: in vivo, barnyard grass (Echinochloa crus-galli)
# Summary of the method: (§3)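 Plants were sown in alluvial soil held under 0.1–0.5 cm standing water and grown 14 days in a greenhouse at 25–30 °C. An emulsifiable formulation, water-diluted to the set dose, was then sprayed onto the foliage, and effects were scored three weeks later using previously defined criteria.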
# windgrass [6] = experiment: Test Example 5: herbicidal effect by foliage application, plastic box (Table 20, symbol L); assay type: in vivo, windgrass (Apera spica-venti); settings: foliage application
# Summary of the method: as §1
# blackgrass [7] = experiment: Test Example 4: herbicidal effect by soil treatment (Table 19, symbol J); assay type: in vivo, blackgrass (Alopecurus myosuroides)
# Summary of the method: as §2
# barnyard grass [8] = experiment: Test Example 5: herbicidal effect by foliage application, plastic box (Table 20, symbol H); assay type: in vivo, barnyard grass (Echinochloa crus-galli); settings: foliage application
# Summary of the method: as §1
# Chinese sprangletop = experiment: Test Example 3: herbicidal effect by foliage application, Wagner pot (Table 18, symbol D); assay type: in vivo, chinese sprangletop (Leptochloa chinensis)
# Summary of the method: as §3
# redroot pigweed = experiment: Test Example 4: herbicidal effect by soil treatment (Table 19, symbol N); assay type: in vivo, redroot pigweed (Amaranthus retroflexus)
# Summary of the method: as §2
# velvetleaf [9] = experiment: Test Example 5: herbicidal effect by foliage application, plastic box (Table 20, symbol M); assay type: in vivo, velvetleaf (Abutilon theophrasti); settings: foliage application
# Summary of the method: as §1
# green foxtail [10] = experiment: Test Example 4: herbicidal effect by soil treatment (Table 19, symbol G); assay type: in vivo, green foxtail (Setaria viridis)
# Summary of the method: as §2
# green foxtail [11] = experiment: Test Example 5: herbicidal effect by foliage application, plastic box (Table 20, symbol G); assay type: in vivo, green foxtail (Setaria viridis); settings: foliage application
# Summary of the method: as §1
# southern crabgrass [12] = experiment: Test Example 4: herbicidal effect by soil treatment (Table 19, symbol F); assay type: in vivo, southern crabgrass (Digitaria ciliaris)
# Summary of the method: as §2
# rice flat sedge = experiment: Test Example 3: herbicidal effect by foliage application, Wagner pot (Table 18, symbol E); assay type: in vivo, rice flat sedge (Cyperus iria)
# Summary of the method: as §3
# windgrass [13] = experiment: Test Example 4: herbicidal effect by soil treatment (Table 19, symbol L); assay type: in vivo, windgrass (Apera spica-venti)
# Summary of the method: as §2
# barnyard grass [14] = experiment: Test Example 4: herbicidal effect by soil treatment (Table 19, symbol H); assay type: in vivo, barnyard grass (Echinochloa crus-galli)
# Summary of the method: as §2
# southern crabgrass [15] = experiment: Test Example 5: herbicidal effect by foliage application, plastic box (Table 20, symbol F); assay type: in vivo, southern crabgrass (Digitaria ciliaris); settings: foliage application
# Summary of the method: as §1
# chickweed = experiment: Test Example 4: herbicidal effect by soil treatment (Table 19, symbol P); assay type: in vivo, common chickweed (Stellaria media)
# Summary of the method: as §2
# persian speedwell [16] = experiment: Test Example 4: herbicidal effect by soil treatment (Table 19, symbol R); assay type: in vivo, Persian speedwell (Veronica persica)
# Summary of the method: as §2
# Italian ryegrass [17] = experiment: Test Example 4: herbicidal effect by soil treatment (Table 19, symbol K); assay type: in vivo, Italian ryegrass (Lolium multiflorum)
# Summary of the method: as §2
# Italian ryegrass [18] = experiment: Test Example 5: herbicidal effect by foliage application, plastic box (Table 20, symbol K); assay type: in vivo, Italian ryegrass (Lolium multiflorum); settings: foliage application
# Summary of the method: as §1
# lambsquarters [19] = experiment: Test Example 4: herbicidal effect by soil treatment (Table 19, symbol O); assay type: in vivo, lambsquarters (Chenopodium album)
# Summary of the method: as §2
# false cleavers [20] = experiment: Test Example 5: herbicidal effect by foliage application, plastic box (Table 20, symbol Q); assay type: in vivo, false cleavers (Galium spurium); settings: foliage application
# Summary of the method: as §1
# persian speedwell [21] = experiment: Test Example 5: herbicidal effect by foliage application, plastic box (Table 20, symbol R); assay type: in vivo, Persian speedwell (Veronica persica); settings: foliage application
# Summary of the method: as §1
# false cleavers [22] = experiment: Test Example 4: herbicidal effect by soil treatment (Table 19, symbol Q); assay type: in vivo, false cleavers (Galium spurium)
# Summary of the method: as §2
# velvetleaf [23] = experiment: Test Example 4: herbicidal effect by soil treatment (Table 19, symbol M); assay type: in vivo, velvetleaf (Abutilon theophrasti)
# Summary of the method: as §2
# [24] = 283 g/ha, 3 weeks after application
# [25] = 320 g/ha, three weeks after application
# [26] = amount of applied herbicide 320 g/ha
structure (smiles),measurement,setting,value
CCCC(=O)Oc1c(C)nn(C)c(=O)c1-c1c(-c2ccccc2OC)sc2ccc(F)cc12 [2-025],effect on blackgrass (J),blackgrass [1]; [24],0 (Herbicidal rate of 5% or less (almost no effect))
same,effect on lambsquarters (O),lambsquarters [2]; [24],3 (Herbicidal rate of 40% or more and less than 70%)
same,effect on wild oat (I),wild oat [3]; [24],3 (Herbicidal rate of 40% or more and less than 70%)
same,"herbicidal effect rating, I: wild oat",wild oat [4]; 283 g/ha,3 (Herbicidal rate of 40% or more and less than 70%)
same,"herbicidal effect on H (barnyard grass), rating 0-5",barnyard grass [5]; 283 g/ha,4 (Herbicidal rate of 70% or more and less than 90%)
same,effect on windgrass (L),windgrass [6]; [24],1 (Herbicidal rate of 5% or more and less than 20%)
same,"herbicidal effect rating, J: blackgrass",blackgrass [7]; 283 g/ha,0 (Herbicidal rate of 5% or less (almost no effect))
same,effect on barnyard grass (H),barnyard grass [8]; [24],3 (Herbicidal rate of 40% or more and less than 70%)
same,"herbicidal effect on D (Chinese sprangletop), rating 0-5",Chinese sprangletop; 283 g/ha,0 (Herbicidal rate of 5% or less (almost no effect))
same,"herbicidal effect rating, N: redroot pigweed",redroot pigweed; 283 g/ha,3 (Herbicidal rate of 40% or more and less than 70%)
same,effect on velvetleaf (M),velvetleaf [9]; [24],5 (Herbicidal rate of 90% or more (almost completely withered))
same,"herbicidal effect rating, G: green foxtail",green foxtail [10]; 283 g/ha,4 (Herbicidal rate of 70% or more and less than 90%)
same,effect on green foxtail (G),green foxtail [11]; [24],4 (Herbicidal rate of 70% or more and less than 90%)
same,"herbicidal effect rating, F: southern crabgrass",southern crabgrass [12]; 283 g/ha,3 (Herbicidal rate of 40% or more and less than 70%)
same,"herbicidal effect on E (rice flat sedge), rating 0-5",rice flat sedge; 283 g/ha,4 (Herbicidal rate of 70% or more and less than 90%)
same,"herbicidal effect rating, L: windgrass",windgrass [13]; 283 g/ha,0 (Herbicidal rate of 5% or less (almost no effect))
same,"herbicidal effect rating, H: barnyard grass",barnyard grass [14]; 283 g/ha,3 (Herbicidal rate of 40% or more and less than 70%)
same,effect on southern crabgrass (F),southern crabgrass [15]; [24],4 (Herbicidal rate of 70% or more and less than 90%)
same,"herbicidal effect rating, P: chickweed",chickweed; 283 g/ha,4 (Herbicidal rate of 70% or more and less than 90%)
same,"herbicidal effect rating, R: persian speedwell",persian speedwell [16]; 283 g/ha,3 (Herbicidal rate of 40% or more and less than 70%)
same,"herbicidal effect rating, K: Italian ryegrass",Italian ryegrass [17]; 283 g/ha,0 (Herbicidal rate of 5% or less (almost no effect))
same,effect on Italian ryegrass (K),Italian ryegrass [18]; [24],1 (Herbicidal rate of 5% or more and less than 20%)
same,"herbicidal effect rating, O: lambsquarters",lambsquarters [19]; 283 g/ha,4 (Herbicidal rate of 70% or more and less than 90%)
same,effect on false cleavers (Q),false cleavers [20]; [24],4 (Herbicidal rate of 70% or more and less than 90%)
same,effect on persian speedwell (R),persian speedwell [21]; [24],4 (Herbicidal rate of 70% or more and less than 90%)
same,"herbicidal effect rating, Q: false cleavers",false cleavers [22]; 283 g/ha,4 (Herbicidal rate of 70% or more and less than 90%)
same,"herbicidal effect rating, M: velvetleaf",velvetleaf [23]; 283 g/ha,2 (Herbicidal rate of 20% or more and less than 40%)
COc1cc2sc(-c3ccc(F)cc3OC)c(-c3c(O)c(C)nn(C)c3=O)c2cc1OC [5-060],herbicidal effect on blackgrass (J),blackgrass [1]; [25],4 (Herbicidal rate of 70% or more and less than 90%)
same,herbicidal effect on lambsquarters (O),lambsquarters [2]; [25],3 (Herbicidal rate of 40% or more and less than 70%)
same,herbicidal effect on wild oat (I),wild oat [3]; [25],4 (Herbicidal rate of 70% or more and less than 90%)
same,"I: wild oat, herbicidal effect grade",wild oat [4]; [26],0 (Herbicidal rate of 5% or less (almost no effect))
same,herbicidal effect on barnyard grass (H),barnyard grass [5]; 320 g/ha,5 (Herbicidal rate of 90% or more (almost completely withered))
same,herbicidal effect on windgrass (L),windgrass [6]; [25],3 (Herbicidal rate of 40% or more and less than 70%)
same,"J: blackgrass, herbicidal effect grade",blackgrass [7]; [26],0 (Herbicidal rate of 5% or less (almost no effect))
same,herbicidal effect on barnyard grass (H),barnyard grass [8]; [25],4 (Herbicidal rate of 70% or more and less than 90%)
same,herbicidal effect on Chinese sprangletop (D),Chinese sprangletop; 320 g/ha,2 (Herbicidal rate of 20% or more and less than 40%)
same,"N: redroot pigweed, herbicidal effect grade",redroot pigweed; [26],0 (Herbicidal rate of 5% or less (almost no effect))
same,herbicidal effect on velvetleaf (M),velvetleaf [9]; [25],0 (Herbicidal rate of 5% or less (almost no effect))
same,"G: green foxtail, herbicidal effect grade",green foxtail [10]; [26],0 (Herbicidal rate of 5% or less (almost no effect))
same,herbicidal effect on green foxtail (G),green foxtail [11]; [25],4 (Herbicidal rate of 70% or more and less than 90%)
same,"F: southern crabgrass, herbicidal effect grade",southern crabgrass [12]; [26],0 (Herbicidal rate of 5% or less (almost no effect))
same,herbicidal effect on rice flat sedge (E),rice flat sedge; 320 g/ha,3 (Herbicidal rate of 40% or more and less than 70%)
same,"L: windgrass, herbicidal effect grade",windgrass [13]; [26],1 (Herbicidal rate of 5% or more and less than 20%)
same,"H: barnyard grass, herbicidal effect grade",barnyard grass [14]; [26],0 (Herbicidal rate of 5% or less (almost no effect))
same,herbicidal effect on southern crabgrass (F),southern crabgrass [15]; [25],3 (Herbicidal rate of 40% or more and less than 70%)
same,"P: chickweed, herbicidal effect grade",chickweed; [26],5 (Herbicidal rate of 90% or more (almost completely withered))
same,"R: persian speedwell, herbicidal effect grade",persian speedwell [16]; [26],3 (Herbicidal rate of 40% or more and less than 70%)
same,"K: Italian ryegrass, herbicidal effect grade",Italian ryegrass [17]; [26],1 (Herbicidal rate of 5% or more and less than 20%)
same,herbicidal effect on Italian ryegrass (K),Italian ryegrass [18]; [25],3 (Herbicidal rate of 40% or more and less than 70%)
same,"O: lambsquarters, herbicidal effect grade",lambsquarters [19]; [26],0 (Herbicidal rate of 5% or less (almost no effect))
same,herbicidal effect on false cleavers (Q),false cleavers [20]; [25],0 (Herbicidal rate of 5% or less (almost no effect))
same,herbicidal effect on persian speedwell (R),persian speedwell [21]; [25],4 (Herbicidal rate of 70% or more and less than 90%)
same,"Q: false cleavers, herbicidal effect grade",false cleavers [22]; [26],0 (Herbicidal rate of 5% or less (almost no effect))
same,"M: velvetleaf, herbicidal effect grade",velvetleaf [23]; [26],0 (Herbicidal rate of 5% or less (almost no effect))
